Laboratory results published in PubChem BioAssay (NCI).
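1) Cells in 96-well plates. 2) Compound, 48 h, 5 concentrations. 3) Linear interpolation between surrounding doses. 4) Unreached endpoint = highest concentration. GI50 = concentration required for 50% inhibition of growth. Definition used: TGI = concentration required for complete inhibition of growth.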

Legend:
Assay in all cases: NCI tumour cell line growth inhibition, 48 h
CAKI-1 renal = test system: CAKI-1 renal
DU-145 prostate = test system: DU-145 prostate
HCC-2998 colon = test system: HCC-2998 colon
CCRF-CEM leukemia = test system: CCRF-CEM leukemia
SNB-75 CNS = test system: SNB-75 CNS
OVCAR-5 ovarian = test system: OVCAR-5 ovarian
A498 renal = test system: A498 renal
NCI/ADR-RES ovarian = test system: NCI/ADR-RES ovarian
SK-OV-3 ovarian = test system: SK-OV-3 ovarian
UACC-62 melanoma = test system: UACC-62 melanoma
UACC-257 melanoma = test system: UACC-257 melanoma
HOP-92 NSCLC = test system: HOP-92 NSCLC
BT-549 breast = test system: BT-549 breast
SW-620 colon = test system: SW-620 colon
HT29 colon = test system: HT29 colon
MDA-MB-231 breast = test system: MDA-MB-231 breast
UO-31 renal = test system: UO-31 renal
HCT-116 colon = test system: HCT-116 colon
RPMI-8226 leukemia = test system: RPMI-8226 leukemia
T-47D breast = test system: T-47D breast
PC-3 prostate = test system: PC-3 prostate
HCT-15 colon = test system: HCT-15 colon
COLO 205 colon = test system: COLO 205 colon
HL-60(TB) leukemia = test system: HL-60(TB) leukemia
NCI-H460 lung = test system: NCI-H460 lung
NCI-H226 lung = test system: NCI-H226 lung
SN12C renal = test system: SN12C renal
EKVX NSCLC = test system: EKVX NSCLC
OVCAR-3 ovarian = test system: OVCAR-3 ovarian
SF-268 CNS = test system: SF-268 CNS
NCI-H522 lung = test system: NCI-H522 lung
ACHN renal = test system: ACHN renal
SK-MEL-5 melanoma = test system: SK-MEL-5 melanoma
SNB-19 CNS = test system: SNB-19 CNS
M14 melanoma = test system: M14 melanoma
MOLT-4 leukemia = test system: MOLT-4 leukemia
RXF 393 renal = test system: RXF 393 renal
786-0 renal = test system: 786-0 renal
A549 NSCLC = test system: A549 NSCLC
SR leukemia = test system: SR leukemia
MCF7 breast = test system: MCF7 breast
MALME-3M melanoma = test system: MALME-3M melanoma
TK-10 renal = test system: TK-10 renal
SF-539 CNS = test system: SF-539 CNS
SF-295 CNS = test system: SF-295 CNS
K-562 leukemia = test system: K-562 leukemia
OVCAR-4 ovarian = test system: OVCAR-4 ovarian
SK-MEL-28 melanoma = test system: SK-MEL-28 melanoma
HOP-62 NSCLC = test system: HOP-62 NSCLC
HS 578T breast = test system: HS 578T breast
LOX IMVI melanoma = test system: LOX IMVI melanoma
OVCAR-8 ovarian = test system: OVCAR-8 ovarian
KM12 colon = test system: KM12 colon
MDA-MB-435 = test system: MDA-MB-435
U251 CNS = test system: U251 CNS
NCI-H23 lung = test system: NCI-H23 lung

CS(=O)(=O)c1ccc(Nc2nc(N[C@H]3CCCC[C@H]3N)nc3cc[nH]c(=O)c23)cc1
GI50 (CAKI-1 renal): 11.7 µM | TGI (CAKI-1 renal): 36.3 µM | GI50 (DU-145 prostate): 2.03 µM | TGI (DU-145 prostate): 10.4 µM | GI50 (HCC-2998 colon): 1.52 µM | TGI (HCC-2998 colon): 4.49 µM | GI50 (CCRF-CEM leukemia): 1.24 µM | TGI (CCRF-CEM leukemia): > 100 µM | GI50 (SNB-75 CNS): 1.29 µM | TGI (SNB-75 CNS): 3.51 µM | GI50 (OVCAR-5 ovarian): 2.52 µM | TGI (OVCAR-5 ovarian): > 100 µM | GI50 (A498 renal): 3.31 µM | TGI (A498 renal): 12.4 µM | GI50 (NCI/ADR-RES ovarian): > 100 µM | TGI (NCI/ADR-RES ovarian): > 100 µM | GI50 (SK-OV-3 ovarian): 3.17 µM | TGI (SK-OV-3 ovarian): > 100 µM | GI50 (UACC-62 melanoma): 1.5 µM | TGI (UACC-62 melanoma): 3.5 µM | GI50 (UACC-257 melanoma): 2.78 µM | TGI (UACC-257 melanoma): 15.9 µM | GI50 (HOP-92 NSCLC): 2.04 µM | TGI (HOP-92 NSCLC): 23.6 µM | GI50 (BT-549 breast): 1.63 µM | TGI (BT-549 breast): 5.51 µM | GI50 (SW-620 colon): 0.627 µM | TGI (SW-620 colon): 8.6 µM | GI50 (HT29 colon): 2.48 µM | TGI (HT29 colon): 11.8 µM | GI50 (MDA-MB-231 breast): 2.81 µM | TGI (MDA-MB-231 breast): 16.3 µM | GI50 (UO-31 renal): 19.7 µM | TGI (UO-31 renal): 72.9 µM | GI50 (HCT-116 colon): 0.615 µM | TGI (HCT-116 colon): 16.8 µM | GI50 (RPMI-8226 leukemia): 4 µM | TGI (RPMI-8226 leukemia): 32.8 µM | GI50 (T-47D breast): 0.891 µM | TGI (T-47D breast): 77.6 µM | GI50 (PC-3 prostate): 2.46 µM | TGI (PC-3 prostate): > 100 µM | GI50 (HCT-15 colon): 26.7 µM | TGI (HCT-15 colon): > 100 µM | GI50 (COLO 205 colon): 0.865 µM | TGI (COLO 205 colon): 2.35 µM | GI50 (HL-60(TB) leukemia): 0.533 µM | TGI (HL-60(TB) leukemia): 6.6 µM | GI50 (NCI-H460 lung): 2.62 µM | TGI (NCI-H460 lung): 11.5 µM | GI50 (NCI-H226 lung): 2.67 µM | TGI (NCI-H226 lung): 19 µM | GI50 (SN12C renal): 2.76 µM | TGI (SN12C renal): > 100 µM | GI50 (EKVX NSCLC): 1.3 µM | TGI (EKVX NSCLC): 5.41 µM | GI50 (OVCAR-3 ovarian): 1.3 µM | TGI (OVCAR-3 ovarian): 4.67 µM | GI50 (SF-268 CNS): 1.33 µM | TGI (SF-268 CNS): 4.26 µM | GI50 (NCI-H522 lung): 0.268 µM | TGI (NCI-H522 lung): 1.72 µM | GI50 (ACHN renal): 5.24 µM | TGI (ACHN renal): 90.1 µM | GI50 (SK-MEL-5 melanoma): 1.53 µM | TGI (SK-MEL-5 melanoma): 3.25 µM | GI50 (SNB-19 CNS): 0.714 µM | TGI (SNB-19 CNS): 28.3 µM | GI50 (M14 melanoma): 2.16 µM | TGI (M14 melanoma): 8.83 µM | GI50 (MOLT-4 leukemia): 2.95 µM | TGI (MOLT-4 leukemia): 17.5 µM | GI50 (RXF 393 renal): 1.03 µM | TGI (RXF 393 renal): 3.04 µM | GI50 (786-0 renal): 3.28 µM | TGI (786-0 renal): 20.6 µM | GI50 (A549 NSCLC): 3.87 µM | TGI (A549 NSCLC): > 100 µM | GI50 (SR leukemia): 0.68 µM | TGI (SR leukemia): 6.03 µM | GI50 (MCF7 breast): 0.326 µM | TGI (MCF7 breast): 13.4 µM | GI50 (MALME-3M melanoma): 1.73 µM | TGI (MALME-3M melanoma): 4.64 µM | GI50 (TK-10 renal): 3.19 µM | TGI (TK-10 renal): 18.7 µM | GI50 (SF-539 CNS): 2.24 µM | TGI (SF-539 CNS): 7.09 µM | GI50 (SF-295 CNS): 1.91 µM | TGI (SF-295 CNS): 5.84 µM | GI50 (K-562 leukemia): 1.14 µM | TGI (K-562 leukemia): > 100 µM | GI50 (OVCAR-4 ovarian): 1.89 µM | TGI (OVCAR-4 ovarian): 9.81 µM | GI50 (SK-MEL-28 melanoma): 1.93 µM | TGI (SK-MEL-28 melanoma): 5.38 µM | GI50 (HOP-62 NSCLC): 3.02 µM | TGI (HOP-62 NSCLC): > 100 µM | GI50 (HS 578T breast): 1.25 µM | TGI (HS 578T breast): 4.95 µM | GI50 (LOX IMVI melanoma): 0.857 µM | TGI (LOX IMVI melanoma): 6.7 µM | GI50 (OVCAR-8 ovarian): 2.68 µM | TGI (OVCAR-8 ovarian): 20.3 µM | GI50 (KM12 colon): 0.491 µM | TGI (KM12 colon): 11.9 µM | GI50 (MDA-MB-435): 1.3 µM | TGI (MDA-MB-435): 3.7 µM | GI50 (U251 CNS): 0.664 µM | TGI (U251 CNS): 21.1 µM | GI50 (NCI-H23 lung): 1.58 µM | TGI (NCI-H23 lung): 6.01 µM
